Source: patent US20260250318A1, “COMPOSITIONS AND METHODS FOR CROSSING THE BLOOD BRAIN BARRIER” (VOYAGER THERAPEUTICS, INC., priority 2022, published 2026)

test system: brain, spinal cord, and DRG of the NHPs; experiment: NGS fold enrichment of synthetic library (passage 3) in NHPs, first cross-species screen; assay type: in vivo, cynomolgus macaques (Macaca fascicularis); conditions: synthetic library passage 3, intravenous, RNA NGS, brain of NHPs, relative to wild-type AAV9
Outline: (§1)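 Passage-3 synthetic capsid library given intravenously […] to NHPs (2-4 years) and BALB/c or C57Bl/6 mice (n=3, 6-8 weeks). After e.g. 28 days, tissue RNA was RT-PCR amplified and NGS-sequenced; values are fold enrichment of each variant relative to wild-type AAV9.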

| Sequence | Fold enrichment over AAV9 in the brain of NHPs |
| --- | --- |
| GAGLIMHSGQNQQT | 1.425 fold |
| GSGQNQQTGMSSVK | 2.109 fold |
| GSGQRLSQGVNHQT | 1.108 fold |
| GSGLIRTAAQNQQT | 1.822 fold |
| GPFGMPSSGQNQQT | 2.260 fold |
| GSGQSHRQPENQQT | 1.529 fold |
| GSGPSISHGQNQQT | 1.000 fold |
| GMSAHMSSGQNQQT | 2.456 fold |
| GSGLSGITMQNQQT | 1.792 fold |
| GSGQLSHQSVNQQT | 1.898 fold |
| GMRTYHLSGQNQQT | 9.241 fold |
| GSGHIYVGIQNQQT | 2.178 fold |
| GSGYKDTYGQNQQT | 1.091 fold |
| GRGAVMASGQNQQT | 1.072 fold |
| GSGVMTHVLQNQQT | 2.692 fold |
| GSSVSPSSGQNQQT | 2.054 fold |
| GSGQSSGRLINKQT | 2.055 fold |
| GSGQNQQPLDTSRT | 1.015 fold |
| GSGFGPQTGQNQQT | 2.964 fold |
| GRGQVVSTHQNQQT | 1.607 fold |
| GSVSTHSSGQNQQT | 2.145 fold |
| GSGMLTHTLQNQQT | 2.246 fold |
| GSGHSIRTDQNQQT | 3.074 fold |
| GSGQVHASQVNQKT | 1.049 fold |

same assay, conditions: synthetic library passage 3, intravenous, RNA NGS, spinal cord of NHPs, relative to wild-type AAV9

| Sequence | Fold enrichment over AAV9 in the spinal cord of NHPs |
| --- | --- |
| GAGLIMHSGQNQQT | 1.408 fold |
| GSGQNQQTGMSSVK | 4.544 fold |
| GSGQRLSQGVNHQT | 3.394 fold |
| GSGLIRTAAQNQQT | 8.339 fold |
| GPFGMPSSGQNQQT | 2.700 fold |
| GSGQSHRQPENQQT | 2.153 fold |
| GSGPSISHGQNQQT | 0.000 fold |
| GMSAHMSSGQNQQT | 5.255 fold |
| GSGLSGITMQNQQT | 14.796 fold |
| GSGQLSHQSVNQQT | 4.032 fold |
| GMRTYHLSGQNQQT | 1.939 fold |
| GSGHIYVGIQNQQT | 6.428 fold |
| GSGYKDTYGQNQQT | 0.854 fold |
| GRGAVMASGQNQQT | 0.923 fold |
| GSGVMTHVLQNQQT | 0.347 fold |
| GSSVSPSSGQNQQT | 0.579 fold |
| GSGQSSGRLINKQT | 28.135 fold |
| GSGQNQQPLDTSRT | 0.775 fold |
| GSGFGPQTGQNQQT | 2.861 fold |
| GRGQVVSTHQNQQT | 3.318 fold |
| GSVSTHSSGQNQQT | 3.446 fold |
| GSGMLTHTLQNQQT | 2.272 fold |
| GSGHSIRTDQNQQT | 15.600 fold |
| GSGQVHASQVNQKT | 0.503 fold |

same assay, conditions: synthetic library passage 3, intravenous, RNA from brain of NHPs, NGS, relative to wild-type AAV9

| Sequence | Fold enrichment over AAV9 in the brain of NHPs |
| --- | --- |
| GSGQLPQSGLNQQT | 1.218 fold |
| GSGQNWPALKGQQT | 1.284 fold |
| GSDGKMHRGQNQQT | 1.227 fold |
| GASHMSISGQNQQT | 1.284 fold |
| GSGYVITGSQNQQT | 1.125 fold |
| GSGQNQQTRQEGST | 1.339 fold |
| GSGQNQDHQNKQQT | 1.308 fold |
| GPASLPISGQNQQT | 1.386 fold |

same assay, conditions: synthetic library passage 3, intravenous, RNA from spinal cord of NHPs, NGS, relative to wild-type AAV9

| Sequence | Fold enrichment over AAV9 in the spinal cord of NHPs |
| --- | --- |
| GSGQLPQSGLNQQT | 1.504 fold |
| GSGQNWPALKGQQT | 2.031 fold |
| GSDGKMHRGQNQQT | 0.000 fold |
| GASHMSISGQNQQT | 0.462 fold |
| GSGYVITGSQNQQT | 6.271 fold |
| GSGQNQQTRQEGST | 0.000 fold |
| GSGQNQDHQNKQQT | 1.470 fold |
| GPASLPISGQNQQT | 9.008 fold |

test system: brain; experiment: NGS fold enrichment of synthetic library (passage 3) in BALB/c mice, first cross-species screen; assay type: in vivo; conditions: synthetic library passage 3, intravenous, RNA NGS, brain of BALB/c mice, relative to wild-type AAV9
Outline: as §1

| Sequence | Fold enrichment over AAV9 in the brain of Mice (BALB/c) |
| --- | --- |
| GAGLIMHSGQNQQT | 0.511 fold |
| GSGQNQQTGMSSVK | 0.679 fold |
| GSGQRLSQGVNHQT | 1.141 fold |
| GSGLIRTAAQNQQT | 0.998 fold |
| GPFGMPSSGQNQQT | 0.560 fold |
| GSGQSHRQPENQQT | 0.159 fold |
| GSGPSISHGQNQQT | 0.665 fold |
| GMSAHMSSGQNQQT | 0.947 fold |
| GSGLSGITMQNQQT | 0.496 fold |
| GSGQLSHQSVNQQT | 0.695 fold |
| GMRTYHLSGQNQQT | 1.586 fold |
| GSGHIYVGIQNQQT | 0.337 fold |
| GSGYKDTYGQNQQT | 0.448 fold |
| GRGAVMASGQNQQT | 0.605 fold |
| GSGVMTHVLQNQQT | 0.533 fold |
| GSSVSPSSGQNQQT | 0.787 fold |
| GSGQSSGRLINKQT | 0.277 fold |
| GSGQNQQPLDTSRT | 0.376 fold |
| GSGFGPQTGQNQQT | 0.849 fold |
| GRGQVVSTHQNQQT | 0.561 fold |
| GSVSTHSSGQNQQT | 0.918 fold |
| GSGMLTHTLQNQQT | 0.199 fold |
| GSGHSIRTDQNQQT | 0.148 fold |
| GSGQVHASQVNQKT | 0.767 fold |

same assay, conditions: synthetic library passage 3, intravenous, RNA from brain of BALB/c mice, NGS, relative to wild-type AAV9

| Sequence | Fold enrichment over AAV9 in the brain of Mice (BALB/c) |
| --- | --- |
| GSGQLPQSGLNQQT | 0.318 fold |
| GSGQNWPALKGQQT | 1.222 fold |
| GSDGKMHRGQNQQT | 0.776 fold |
| GASHMSISGQNQQT | 0.374 fold |
| GSGYVITGSQNQQT | 0.248 fold |
| GSGQNQQTRQEGST | 0.718 fold |
| GSGQNQDHQNKQQT | 0.761 fold |
| GPASLPISGQNQQT | 0.155 fold |

test system: brain; experiment: NGS fold enrichment of synthetic library (passage 3) in C57Bl/6 mice, first cross-species screen; assay type: in vivo; conditions: synthetic library passage 3, intravenous, RNA NGS, brain of C57Bl/6 mice, relative to wild-type AAV9
Outline: as §1

| Sequence | Fold enrichment over AAV9 in the brain of Mice (C57Bl/6) |
| --- | --- |
| GAGLIMHSGQNQQT | 0.565 fold |
| GSGQNQQTGMSSVK | 1.451 fold |
| GSGQRLSQGVNHQT | 0.931 fold |
| GSGLIRTAAQNQQT | 0.808 fold |
| GPFGMPSSGQNQQT | 0.727 fold |
| GSGQSHRQPENQQT | 0.209 fold |
| GSGPSISHGQNQQT | 0.614 fold |
| GMSAHMSSGQNQQT | 1.310 fold |
| GSGLSGITMQNQQT | 0.862 fold |
| GSGQLSHQSVNQQT | 0.720 fold |
| GMRTYHLSGQNQQT | 2.033 fold |
| GSGHIYVGIQNQQT | 0.989 fold |
| GSGYKDTYGQNQQT | 0.717 fold |
| GRGAVMASGQNQQT | 0.783 fold |
| GSGVMTHVLQNQQT | 0.370 fold |
| GSSVSPSSGQNQQT | 1.064 fold |
| GSGQSSGRLINKQT | 0.543 fold |
| GSGQNQQPLDTSRT | 0.491 fold |
| GSGFGPQTGQNQQT | 1.280 fold |
| GRGQVVSTHQNQQT | 0.931 fold |
| GSVSTHSSGQNQQT | 1.198 fold |
| GSGMLTHTLQNQQT | 0.496 fold |
| GSGHSIRTDQNQQT | 0.229 fold |
| GSGQVHASQVNQKT | 0.855 fold |

same assay, conditions: synthetic library passage 3, intravenous, RNA from brain of C57Bl/6 mice, NGS, relative to wild-type AAV9

| Sequence | Fold enrichment over AAV9 in the brain of Mice (C57Bl/6) |
| --- | --- |
| GSGQLPQSGLNQQT | 0.641 fold |
| GSGQNWPALKGQQT | 1.101 fold |
| GSDGKMHRGQNQQT | 1.826 fold |
| GASHMSISGQNQQT | 0.404 fold |
| GSGYVITGSQNQQT | 0.971 fold |
| GSGQNQQTRQEGST | 0.645 fold |
| GSGQNQDHQNKQQT | 0.510 fold |
| GPASLPISGQNQQT | 0.312 fold |
